{"source": "ChEMBL document CHEMBL5715940", "about": "(Curr Biol, 2007)", "key": {"[1]": {"system": "HeLa", "test": "Induction of mitotic arrest in human HeLa cells with expressing H2B-GFP assessed as cells formed multilobed nuclei at 100 nM", "type": "functional, cell-based"}, "[2]": {"target": "Serine/threonine-protein kinase PLK1 (Homo sapiens) (UniProt P53350)", "sequence (P53350 whole entry)": "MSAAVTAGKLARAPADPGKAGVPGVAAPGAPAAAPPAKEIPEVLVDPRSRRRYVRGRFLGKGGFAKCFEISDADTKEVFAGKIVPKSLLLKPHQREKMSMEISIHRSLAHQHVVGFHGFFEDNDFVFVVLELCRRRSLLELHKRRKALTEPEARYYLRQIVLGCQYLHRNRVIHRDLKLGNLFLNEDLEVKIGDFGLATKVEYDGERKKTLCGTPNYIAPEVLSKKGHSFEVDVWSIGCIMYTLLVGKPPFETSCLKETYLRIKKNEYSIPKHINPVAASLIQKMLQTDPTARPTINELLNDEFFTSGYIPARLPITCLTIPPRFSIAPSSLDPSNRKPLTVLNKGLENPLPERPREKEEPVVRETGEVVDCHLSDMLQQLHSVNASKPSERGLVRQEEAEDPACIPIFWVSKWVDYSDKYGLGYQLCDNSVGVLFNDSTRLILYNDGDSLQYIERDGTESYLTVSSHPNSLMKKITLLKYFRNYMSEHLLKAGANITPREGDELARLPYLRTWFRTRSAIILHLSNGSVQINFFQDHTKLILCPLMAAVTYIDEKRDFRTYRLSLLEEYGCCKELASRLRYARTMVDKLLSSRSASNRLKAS", "test": "Inhibition of Plk1 in human HeLa cells assessed as low level of cyclin B in total lysates of cells arrested in mitosis at 100 nM for 13 hr after the second thymidine release by immunoblot analysis"}, "[3]": {"system": "HeLa", "test": "Induction of mitotic arrest in human HeLa cells s stably expressing CENPA-GFP assessed as attachment of kinetochores to microtubule at 10 uM for 2 hrs by live cell imaging analysis", "type": "functional, cell-based"}, "[4]": {"system": "HeLa", "test": "Induction of mitotic arrest in human HeLa cells assessed as appearance of microtubule bundles visible at many kinetochores at […] incubated for 2 hrs after cold treatment by transmission electron microscopy", "type": "functional, cell-based"}, "[5]": {"target": "Serine/threonine-protein kinase PLK1 (Homo sapiens) (UniProt P53350)", "details": "HeLa, dose 100.0 nM, time 12.0 min"}, "[6]": {"target": "Serine/threonine-protein kinase PLK1 (Homo sapiens) (UniProt P53350)", "details": "HeLa, dose 100.0 nM, time 12.0 min", "remark": "listed apart in the source"}, "[7]": {"system": "HeLa", "test": "Induction of mitotic arrest in human HeLa cells assessed as K-fibers persisted cells at […] incubated for 2 hrs after cold treatment by immunofluorescence analysis", "type": "functional, cell-based"}, "[8]": {"system": "HeLa", "test": "Induction of mitotic arrest in human HeLa cells assessed as appearance of kinetochore plates arranged on the spindle center at […] incubated for 2 hrs after cold treatment by transmission electron microscopy", "type": "functional, cell-based"}, "[9]": {"system": "HeLa", "test": "Induction of mitotic arrest in human HeLa cells assessed as cell population in prophase incubated for 4 hrs after thymidine release relative to control relative to control", "type": "functional"}, "[10]": {"system": "HeLa", "test": "Induction of mitotic arrest in human HeLa cells assessed as appearance of shortened spindle formation at 100 nM for 60 mins after thymidine release in the presence of MG132 by immunofluorescence microscopy", "type": "functional, cell-based"}, "[11]": {"system": "HeLa", "test": "Induction of mitotic arrest in human HeLa cells with expressing H2B-GFP assessed as enter the apoptosis at 100 nM", "type": "functional, cell-based"}, "[12]": {"system": "HeLa", "test": "Induction of mitotic arrest in human HeLa cells assessed as microtubule structures at 100 nM incubated for 2 hrs after cold treatment by immunofluorescence analysis", "type": "functional, cell-based"}, "[13]": {"system": "HeLa", "test": "Induction of mitotic arrest in human HeLa cells s stably expressing CENPA-GFP assessed as focus on poles at 10 uM within 10 to 30 mins by live cell imaging analysis", "type": "functional, cell-based", "details": "time 10-30 min"}, "[14]": {"system": "HeLa", "test": "Induction of mitotic arrest in human HeLa cells s stably expressing CENPA-GFP assessed as spindles lost astral microtubules at 10 uM within 10 to 30 mins by live cell imaging analysis", "type": "functional, cell-based", "details": "time 10-30 min"}, "[15]": {"system": "HeLa", "test": "Induction of mitotic arrest in human HeLa cells s stably expressing CENPA-GFP assessed as prophase microtubule asters at 100 nM for 4 hr after release by immunofluorescence analysis", "type": "functional, cell-based"}, "[16]": {"system": "HeLa", "test": "Induction of mitotic arrest in human HeLa cells with stably express GFP-tagged histone H2B assessed as chromosome condensation measured at 730 mins after thymidine release", "type": "functional, cell-based"}, "[17]": {"system": "HeLa", "test": "Induction of mitotic arrest in human HeLa cells s stably expressing CENPA-GFP assessed as microtubules instantaneously organized to monopolar spindle at 100 nM for 4 hrs after NEBD by immunofluorescence analysis", "type": "functional, cell-based"}, "[18]": {"system": "HeLa", "test": "Induction of mitotic arrest in human HeLa cells assessed as weakly centrosome in prometaphase arrested cells at 100 nM for 2 hrs by immunofluorescence analysis", "type": "functional, cell-based"}, "[19]": {"system": "HeLa", "test": "Induction of mitotic arrest in human HeLa cells s stably expressing CENPA-GFP assessed as appear on mitotic microtubule at 100 nM for 4 hr release after NEBD by immunofluorescence analysis", "type": "functional, cell-based"}, "[20]": {"system": "HeLa", "test": "Induction of mitotic arrest in human HeLa cells assessed as increase of cell population in prophase incubated for 3 hrs after thymidine release", "type": "functional, cell-based"}, "[21]": {"system": "HeLa", "test": "Induction of mitotic arrest in human HeLa cells assessed as appearance of kinetochore in opposite side of the chromosomes at 100 nM incubated for 2 hrs after cold treatment by transmission electron microscopy", "type": "functional, cell-based"}, "[22]": {"system": "HeLa", "test": "Induction of mitotic arrest in human HeLa cells with expressing H2B-GFP assessed as cells formed multilobed nuclei at 100 nM in the presence of hesperadin", "type": "functional, cell-based"}, "[23]": {"system": "HeLa", "test": "Induction of mitotic arrest in human HeLa cells with stably express GFP-tagged histone H2B assessed as decrease in prometaphase after thymidine release", "type": "functional, cell-based"}, "[24]": {"system": "HeLa", "test": "Induction of mitotic arrest in human HeLa cells assessed as dim kinetochore signal in prometaphase arrested cells at 100 nM for 2 hrs by immunofluorescence analysis", "type": "functional, cell-based"}, "[25]": {"system": "HeLa", "test": "Induction of mitotic arrest in human HeLa cells s stably expressing CENPA-GFP assessed as appearance of kinetochore pairs lose at 10 uM for 60 mins by live cell imaging analysis", "type": "functional, cell-based"}, "[26]": {"system": "HeLa", "test": "Induction of mitotic arrest in human HeLa cells assessed as appearance of spindles lose the focused poles at 100 nM for 30 mins after thymidine release in the presence of MG132 by immunofluorescence microscopy", "type": "functional, cell-based"}, "[27]": {"system": "HeLa", "test": "Induction of mitotic arrest in human HeLa cells assessed as appearance of collapse spindle formation at 100 nM for 120 mins after thymidine release in the presence of MG132 by immunofluorescence microscopy", "type": "functional, cell-based"}, "[28]": {"system": "HeLa", "test": "Induction of mitotic arrest in human HeLa cells s stably expressing CENPA-GFP assessed as spindle poles often broadened at 10 uM for 30 mins by live cell imaging analysis", "type": "functional, cell-based"}, "[29]": {"system": "HeLa", "test": "Induction of mitotic arrest in human HeLa cells stably expressing CENPA-GFP assessed as appearance of shortened spindle formation at 10 uM incubated for 120 mins by live cell imaging analysis", "type": "functional, cell-based"}, "[30]": {"system": "HeLa", "test": "Induction of mitotic arrest in human HeLa cells assessed as increase of cell population in prophase incubated for 6 hrs after thymidine release", "type": "functional, cell-based"}, "[31]": {"system": "HeLa", "test": "Induction of mitotic arrest in human HeLa cells assessed as appearance of kinetochore plates connected to few microtubules and lateral attachment at 100 nM incubated for 2 hrs after cold treatment by transmission electron microscopy", "type": "functional, cell-based"}, "[32]": {"target": "Serine/threonine-protein kinase PLK1 (Homo sapiens) (UniProt P53350)", "test": "Inhibition of Plk1 in human HeLa cells assessed as high level of cyclin B in total lysates of cells arrested in mitosis at 50 ng/ml for 13 hr after the second thymidine release by immunoblot analysis"}}, "note": "Active and inactive are the calls of the source. No cut-off for these calls is given here. Residues, ends and D or L forms follow the SMILES beside them. *: point of attachment. Cbz = O=C(OCc1ccccc1)*", "data": [{"smiles": "CCS(=O)(=O)Nc1ccc2c(c1)/C(=C(\\Nc1ccc(CN3CCCCC3)cc1)c1ccccc1)C(=O)N2", "values": [{"measurement": "Activity", "setting": "[1]", "value": "Active"}, {"measurement": "inhibition", "setting": "[2]", "value": "Active"}]}, {"smiles": "CC(C)C[C@@H](C=O)NC(=O)[C@H](CC(C)C)NC(=O)[C@H](CC(C)C)NC(=O)OCc1ccccc1", "note": "(Cbz-Leu-Leu-Leu-aldehyde)", "values": [{"measurement": "Activity", "setting": "[3]", "value": "Active"}]}, {"smiles": "CCOC(=O)C1=C(C)NC(=S)NC1c1cccc(O)c1", "note": "(stereo not drawn) [MONASTROL]", "values": [{"measurement": "Activity", "setting": "[4]", "value": "Active"}, {"measurement": "inhibition", "setting": "[5]", "value": "Active"}, {"measurement": "inhibition", "setting": "[6]", "value": "Active"}, {"measurement": "Activity", "setting": "[7]", "value": "Active"}, {"measurement": "Activity", "setting": "[8]", "value": "Active"}, {"measurement": "Activity", "setting": "[9]", "value": 5, "unit": "%"}]}, {"smiles": "CC[C@@H]1C(=O)N(C)c2cnc(Nc3ccc(C(=O)NC4CCN(C)CC4)cc3OC)nc2N1C1CCCC1", "note": "[BI-2536]", "values": [{"measurement": "Activity", "setting": "[10]", "value": "Active"}, {"measurement": "Activity", "setting": "[11]", "value": "Active"}, {"measurement": "Activity", "setting": "[12]", "value": "inactive"}, {"measurement": "Activity", "setting": "[13]", "value": "Active"}, {"measurement": "Activity", "setting": "[14]", "value": "Active"}, {"measurement": "Activity", "setting": "[15]", "value": "inactive"}, {"measurement": "Activity", "setting": "[16]", "value": "Active"}, {"measurement": "Activity", "setting": "[17]", "value": "Active"}, {"measurement": "Activity", "setting": "[18]", "value": "Active"}, {"measurement": "Activity", "setting": "[19]", "value": "Active"}, {"measurement": "Activity", "setting": "[20]", "value": "Active"}, {"measurement": "Activity", "setting": "[21]", "value": "Active"}, {"measurement": "Activity", "setting": "[22]", "value": "Active"}, {"measurement": "Activity", "setting": "[23]", "value": "Active"}, {"measurement": "Activity", "setting": "[24]", "value": "Active"}, {"measurement": "Activity", "setting": "[25]", "value": "Active"}, {"measurement": "Activity", "setting": "[26]", "value": "Active"}, {"measurement": "Activity", "setting": "[27]", "value": "Active"}, {"measurement": "Activity", "setting": "[28]", "value": "Active"}, {"measurement": "Activity", "setting": "[29]", "value": "Active"}, {"measurement": "Activity", "setting": "[30]", "value": "Active"}, {"measurement": "Activity", "setting": "[9]", "value": 30, "unit": "%"}, {"measurement": "Activity", "setting": "[31]", "value": "Active"}]}, {"smiles": "COC(=O)Nc1nc2cc(C(=O)c3cccs3)ccc2[nH]1", "values": [{"measurement": "inhibition", "setting": "[32]", "value": "Active"}]}]}
